# How the values were obtained:
# [1] = GI tolerability testing: gastric ulcerogenic effect in rats; assay type: in vivo; conditions: rat, aspirin 30 mg/Kg daily or molar equivalent doses, oral gavage, 3 days
# Description: In this study, rats are fed Aspirin 30 mg/Kg daily or molar equivalent doses of ISAS, ISANA (“Nicotinate”), ISANO “Meta” nitrate or ISAMNA in oral gavage daily for 3 days (n=3 per group). At the end of the dosing period, all animals were sacrificed, stomachs removed and were immersed in 2% formalin for at least 10 min to fix the gastric tissue wall, and will opened along the greater curvature for scoring for irritation or hemorrhagic lesions or ulcers developed in the corpus mucosa under a dissecting microscope on a 5-point scale. The percentage of stomach surface area showing ulcers was recorded for each animal and expressed as a percentage.
# MMP-2 = MMP-2 release during 59M-induced TCIPA by zymography; assay type: cell-based, human; conditions: 300 uM, P>0.05
# Description: Sample collection was carried out as previously described (Jurasz et al., 2001; Medina et al., 2006). Briefly, platelets at a concentration of 2.5×10^8/ml were placed into lumi-aggregometer and tumor cells (59M) were added at 1×10^3/ml. When platelet aggregation reached 50% maximal light transmission the reaction was terminated and samples were collected. The samples were then centrifuged at 900×g at room temperature for 10 min. After centrifugation, platelet releasates were collected and stored at −80 C until assayed for the presence of MMP activity by zymography.
# Gelatin zymography was used to detect the activity of MMP-2 in the releasates as previously described (Alonso-Escolano et al., 2004; Jurasz et al., 2001; Medina et al., 2006). Briefly, samples were subjected to 10% sodium dodecyl sulfate-polyacrylamide gel electrophoresis (SDS-PAGE) with copolymerized gelatin (0.2%; Sigma Chemical Co, St. Louis, Mo.) incorporated as a substrate for gelatinolytic proteases. […] The gelatinolytic activities were detected as transparent bands against the background of Coomassie blue-stained gelatin. The intensities of the separate bands were analyzed and quantified using ChemiDoc XRS System (Bio-Rad, Hercules, Calif., U.S.A.). The gelatinolytic activity of each band was expressed as arbitrary units of density/mg protein.
# [2] = system: platelet rich plasma (PRP); test: U46619-induced platelet aggregation in PRP; assay type: cell-based, human
# Description: Platelet aggregation was measured by light aggregometry. […] Aggregation was initiated by the addition of agonists, and monitored by Aggro-Link software for at least 6 min.
# [3] = system: platelet rich plasma (PRP); conditions: values marked † From Reference 7, read-out: IC50 (PRP, 95% CI); cited from earlier work
# CaCo2 cells = test: Tumour cell-induced platelet aggregation (TCIPA), static conditions, Caco-2
# Description: Three human tumor cell lines, 59M ovarian adenocarcinoma, Caco-2 colon adenocarcinoma and HT1080 fibrocarcinoma cells, were obtained from the European Cell Culture Collection. Cell lines were cultured as monolayers in 75 ml culture flasks at 37° C. in a humidified atmosphere with 5% CO2. 59M cells and HT1080 were cultured in Dulbecco's […] (DMEM) supplemented with 10% fetal bovine serum (FBS) and gentamycin (0.05 mg/ml), penicillin (0.06 mg/ml), and streptomycin (0.01 mg/ml). Caco-2 cell line was cultured in Minimum Essential Medium (MEM) supplemented with 20% FBS and the same antibiotics as above. The cells were supplied with fresh medium and subcultured three times each week.
# Washed platelet suspensions (2.5×10^11 platelets 1^−1) were prepared from blood an mixed with the anticoagulant sodium citrate (0.315% final concentration).
# The interactions between platelets and tumor cells were measured by light aggregometry (Alonso-Escolano et al., 2004; Jurasz et al., 2001b; Radomski et al., 1991). […] TCIPA was initiated by the addition of cancer cells, and monitored by Aggro-Link software for at least 30 min. […]
# To study whether or not aspirin prodrugs had any direct effect on tumour cells, nictoinate was preincubated with different cell lines and added to the platelet suspension. TCIPA was monitored for at least 30 min.
SMILES,gastric ulcerogenic effect [1],release of pro-MMP-2 during platelet aggregation induced by 59M cells (MMP-2),inhibitory effect on platelet aggregation induced by U46619 [2],IC50 [3],effect on TCIPA when tumour cells were preincubated with compound (CaCo2 cells; Caco2 cells preincubated),"inhibition of TCIPA induced by Caco-2 (CaCo2 cells; static, WP, 300 and 500 μM, CaCo2 1.5×10^3/ml)"
CC(=O)Oc1ccccc1C(=O)O [Aspirin],significant gastric ulcerogenic effect,failed to prevent,Neither aspirin nor the aspirin prodrugs had any inhibitory effect,92 µM,–,–
"CC(=O)Oc1ccccc1C(=O)O[C@H]1CO[C@H]2[C@@H]1OC[C@H]2OC(=O)c1cccnc1 [ST0702, isosorbide-2-aspirinate-5-nicotinate]",–,–,–,–,no effect on TCIPA,consistently inhibited TCIPA

# Reference: patent US9670223B2, “Compounds with super-aspirin effects” (SOLVOTRIN THERAPEUTICS LTD., priority 2011, dated 2017)
